Laboratory results reported in US20080004290A1, “Anti-Cancer Agents” (THE UNIVERSITY OF QUEENSLAND, priority 2003, published 2008).
Where two headings read alike, the source gives them in different places.

What was measured:
MM96L melanoma cells = test: Cell survival assay (clonogenic survival, SRB); assay type: cell-based, human; conditions: for Selectivity: IC50 (NFF)/IC50 (MM96L)
Experimental: (§1) The cytotoxicities of the compounds of the invention were determined by clonogenic survival of human cancer cells (MM96L, melanoma) and human normal cells (NFF, neonatal foreskin fibroblasts). Cells were incubated with the compounds at various concentrations of compound (0.01-10 μg/mL) for 24 hours, washed, and then grown for a further four days in the absence of hydroxamic acid before determining cell survival by cell count. The final readout involved staining with sulforhodamine B (SRB), a cost-effective method amenable to automation and high throughput analysis. At the technical level, “cell sensitivity” is often inferred from short term (1-2 day) observations such as apoptosis, which may not be a satisfactory model of clonogenic survival.
(§2) Cell Lines and Culture Medium. All cell lines used in this study have been described previously (Parsons et al., 1986; Todaro et al., 1980; Glenn et al., 2004). All cell lines were cultured in 10% heat-inactivated foetal calf serum (CSL, Australia) in RPMI 1640 medium supplemented with 100 U/mL penicillin, 100 μg/mL streptomycin, and 3 mM HEPES at 5% CO2, 99% humidity at 37° C. Primary human fibroblasts were obtained from neonatal foreskins and cultured in the above medium. Routine mycoplasma tests were performed using Hoechst stain^i and were always negative.
(§3) Cell Survival Assay. Cells were plated into 96-well microtitre plates at 5×10^3 cells/well, and allowed to adhere overnight. Test compounds were added to culture medium at the indicated concentrations, and plates incubated in the above conditions for 24 hours. Following this incubation period, compounds and media were removed, and replaced with fresh culture medium. Cells were then grown for a further 72 hours before assay using sulforhodamine B (SRB; Sigma, St. Louis, Mo.) as previously described. Briefly, the culture medium was removed from the 96-well microtitre plates and the plates washed twice with phosphate buffered saline (PBS), before the cells were fixed with methylated spirits for 15 minutes. The plates were then rinsed with tap water and the fixed cells stained with 50 μL/well of SRB solution (0.4% sulforhodamine B (w/v) in 1% (v/v) acetic acid) over a period of 1 hour. The SRB solution was then removed from the wells and the plates rapidly washed two times with 1% (v/v) acetic acid. Protein bound dye was then solubilised with the addition of 100 μL of 10 mM unbuffered Tris, and incubated for 15 min at 25° C. Plates were then read at 564 nm on a VERSA max tunable microplate reader (Molecular Devices, Sunnyvale, Calif.).

[1] = system: NFF, neonatal foreskin fibroblasts; test: Cell survival assay (clonogenic survival, SRB), normal cells; assay type: cell-based, human; conditions: 24 hours with compound, further growth, SRB, read-out: IC50 (μM) NFF
Experimental: as §1, §2, §3

[2] = Homo sapiens, MM96L, 24 h, Table 6, 24 hours with compound, further growth, SRB, read-out: IC50 (μM) MM96L
[3] = Homo sapiens, Fibroblast, 24 h, Table 6
[4] = Homo sapiens, MM96L, 24 h, Table 7, 24 hours with compound, further growth, SRB, read-out: IC50 (μM) MM96L
[5] = Homo sapiens, Fibroblast, 24 h, Table 7
[6] = Table 8, 24 hours with compound, further growth, SRB, read-out: IC50 (μM) MM96

CN(C)c1ccc(C(=O)N[C@@H](CSCCCC(=O)NO)C(=O)NCC2CCCCC2)cc1 [Example 88]
IC50 (MM96L melanoma cells; [2]): 0.51 ± 0.09 µM
Selectivity (MM96L melanoma cells; Table 6): 7.1
IC50 [1, 3]: 3.6 ± 0.2 µM

CN(C)c1ccc(C(=O)N[C@@H](CSCCCC(=O)NO)C(=O)NC2CCCC2)cc1 [Example 89]
IC50 (MM96L melanoma cells; [2]): 1.5 ± 0.1 µM
Selectivity (MM96L melanoma cells; Table 6): 1.7
IC50 [1, 3]: 2.6 ± 0.3 µM

CN(C)c1ccc(C(=O)N[C@@H](CSCCCC(=O)NO)C(=O)NC2CCN(Cc3ccccc3)CC2)cc1 [Example 90]
IC50 (MM96L melanoma cells; [2]): 1.5 ± 0.2 µM
Selectivity (MM96L melanoma cells; Table 6): 0.9
IC50 [1, 3]: 1.28 ± 0.08 µM

CN(C)c1ccc(C(=O)N[C@@H](CSCCCC(=O)NO)C(=O)N2CCCCC2)cc1 [Example 91]
IC50 (MM96L melanoma cells; [2]): 4.9 ± 0.3 µM
Selectivity (MM96L melanoma cells; Table 6): 4.2
IC50 [1, 3]: 20 ± 2 µM

CN(C)c1ccc(C(=O)N[C@@H](CSCCCC(=O)NO)C(=O)NC23CC4CC(CC(C4)C2)C3)cc1 [Example 92]
IC50 (MM96L melanoma cells; [2]): 1.48 ± 0.08 µM
Selectivity (MM96L melanoma cells; Table 6): 4.8
IC50 [1, 3]: 7.1 ± 0.5 µM

CN(C)c1ccc(C(=O)NC(CSCCCC(=O)NO)C(=O)NC(C)(C)C)cc1 (stereo not shown) [Example 96]
IC50 (MM96L melanoma cells; Table 6, 24 hours with compound, further growth, SRB, read-out: IC50 (μM) MM96L): 0.7 ± 0.2 µM
Selectivity (MM96L melanoma cells; Table 6): 5.0
IC50 ([1]; Table 6): 3.5 ± 0.5 µM

O=C(/C=C/c1ccccc1)N[C@@H](CSCCCC(=O)NO)C(=O)Nc1ccncc1 [Example 97]
IC50 (MM96L melanoma cells; [4]): 0.5 ± 0.2 µM
Selectivity (MM96L melanoma cells; Table 7): 3.3
IC50 [1, 5]: 1.6 ± 0.3 µM

O=C(/C=C/c1ccccc1)N[C@@H](CSCCCC(=O)NO)C(=O)Nc1cccnc1 [Example 98]
IC50 (MM96L melanoma cells; [4]): 1.2 ± 0.3 µM
Selectivity (MM96L melanoma cells; Table 7): 5.2
IC50 [1, 5]: 6.4 ± 0.8 µM

Cc1ccnc(NC(=O)[C@H](CSCCCC(=O)NO)NC(=O)/C=C/c2ccccc2)c1 [Example 99]
IC50 (MM96L melanoma cells; [4]): 0.6 ± 0.2 µM
Selectivity (MM96L melanoma cells; Table 7): 6.5
IC50 [1, 5]: 4 ± 0.6 µM

O=C(/C=C/c1ccccc1)N[C@@H](CSCCCC(=O)NO)C(=O)NCc1ccncc1 [Example 100]
IC50 (MM96L melanoma cells; [4]): 0.34 ± 0.02 µM
IC50 (MM96L melanoma cells; Homo sapiens, MM96L, most preferred compounds, exemplary examples, read-out: potency of IC50 against the MM96 melanoma cells): ≤ 0.5 µM
Selectivity (MM96L melanoma cells; Table 7): 4.8
IC50 [1, 5]: 1.6 ± 0.2 µM

O=C(/C=C/c1ccccc1)N[C@@H](CSCCCC(=O)NO)C(=O)NCc1cccnc1 [Example 101]
IC50 (MM96L melanoma cells; [4]): 0.9 ± 0.2 µM
Selectivity (MM96L melanoma cells; Table 7): 15.1
IC50 [1, 5]: 13.2 ± 0.7 µM

O=C(/C=C/c1ccccc1)N[C@@H](CSCCCC(=O)NO)C(=O)NCc1ccccn1 [Example 102]
IC50 (MM96L melanoma cells; [4]): 0.8 ± 0.3 µM
Selectivity (MM96L melanoma cells; Table 7): 5.3
IC50 [1, 5]: 4.2 ± 0.4 µM

CC(C)NC(=O)c1ccc(CNC(=O)[C@H](CSCCCC(=O)NO)NC(=O)c2ccc(N(C)C)cc2)cc1 [Example 103]
IC50 (MM96L melanoma cells; [6]): 1.38 µM
Selectivity (MM96L melanoma cells; Table 8): 7.30
IC50 ([1]; Table 8): 10.1 µM

CC(C)CNC(=O)c1ccc(CNC(=O)[C@H](CSCCCC(=O)NO)NC(=O)c2ccc(N(C)C)cc2)cc1 [Example 104]
IC50 (MM96L melanoma cells; [6]): 1.62 µM
Selectivity (MM96L melanoma cells; Table 8): 5.0
IC50 ([1]; Table 8): 8.08 µM

CN(C)c1ccc(C(=O)N[C@@H](CSCCCC(=O)NO)C(=O)NCc2ccc(C(=O)NCCCCCCO)cc2)cc1 [Example 105]
IC50 (MM96L melanoma cells; [6]): 4.26 µM
Selectivity (MM96L melanoma cells; Table 8): 4.0
IC50 ([1]; Table 8): 17 µM

CN(C)c1ccc(C(=O)N[C@@H](CSCCCC(=O)NO)C(=O)NCc2ccc(C(=O)NCc3ccccc3)cc2)cc1 [Example 106]
IC50 (MM96L melanoma cells; [6]): 1.18 µM
Selectivity (MM96L melanoma cells; Table 8): 10.0
IC50 ([1]; Table 8): 11.8 µM

CN(C)c1ccc(C(=O)N[C@@H](CSCCCC(=O)NO)C(=O)NCc2ccc(C(=O)Nc3ccncc3)cc2)cc1 [Example 107]
IC50 (MM96L melanoma cells; [6]): 2.96 µM
Selectivity (MM96L melanoma cells; Table 8): 5.7
IC50 ([1]; Table 8): 16.9 µM

CN(C)c1ccc(C(=O)N[C@@H](CSCCCC(=O)NO)C(=O)NCc2ccc(C(=O)NCc3ccccn3)cc2)cc1 [Example 108]
IC50 (MM96L melanoma cells; [6]): 2.28 µM
Selectivity (MM96L melanoma cells; Table 8): 7.4
IC50 ([1]; Table 8): 16.9 µM

CN(C)c1ccc(NC(=O)c2ccc(CNC(=O)[C@H](CSCCCC(=O)NO)NC(=O)c3ccc(N(C)C)cc3)cc2)cc1 [Example 109]
IC50 (MM96L melanoma cells; [6]): 0.54 µM
Selectivity (MM96L melanoma cells; Table 8): 4.5
IC50 ([1]; Table 8): 2.42 µM

CN(C)c1ccc(C(=O)N[C@@H](CSCCCC(=O)NO)C(=O)NCc2ccc(C(=O)NCCc3ccc(O)cc3)cc2)cc1 [Example 110]
IC50 (MM96L melanoma cells; [6]): 2.98 µM
Selectivity (MM96L melanoma cells; Table 8): 5.4
IC50 ([1]; Table 8): 16.1 µM
